Test results: PubChem BioAssay AID328 (DTP/NCI, 2004)
Where “and” joins values, the source holds several entries; their conditions need not be identical. Equal values may be shown once. Inconclusive results and toxic doses are left out. How the source made its calls: active means survival T/C of 150% or more; inactive means T/C below 125% in these data.

Tested on: BDF1 mice, P388 leukemia ip, median survival T/C
Experiment: NCI In Vivo Anticancer Drug Screen. Data for tumor model P388 Leukemia (intraperitoneal) in B6D2F1 (BDF1) mice
Settings: endpoint: median survival time, higher = longer survival
Outline: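 Mice carrying the transplantable tumour receive compound or vehicle. Survival is followed in each arm, and the treated measure is divided by the vehicle measure.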

[1] = dose: 25.0 mg/kg/injection, schedule: Q04DX003 (ip), vehicle: water
[2] = dose: 6.25 mg/kg/injection, schedule: Q04DX003 (ip), vehicle: saline
[3] = dose: 12.5 mg/kg/injection, schedule: Q01DX009 (ip), vehicle: Klucel (hydroxypropylcellulose) (HPC)
[4] = dose: 12.5 mg/kg/injection, schedule: Q04DX003 (ip), vehicle: saline
[5] = dose: 25.0 mg/kg/injection, schedule: Q01DX009 (ip), vehicle: Klucel (hydroxypropylcellulose) (HPC)
[6] = dose: 25.0 mg/kg/injection, schedule: Q04DX003 (ip), vehicle: saline
[7] = dose: 100.0 mg/kg/injection, schedule: Q01DX009 (ip), vehicle: saline
[8] = dose: 200.0 mg/kg/injection, schedule: Q01DX009 (ip), vehicle: saline
[9] = dose: 200.0 mg/kg/injection, schedule: Q04DX003 (ip), vehicle: saline
[10] = dose: 100.0 mg/kg/injection, schedule: Q01DX009 (ip), vehicle: saline with Tween-80
[11] = dose: 200.0 mg/kg/injection, schedule: Q01DX009 (ip), vehicle: saline with Tween-80

Measured: T/C

Clc1ccc(-c2cc(=[N+]3CCC4(CC3)SSC3(CC[N+](=c5cc(-c6ccc(Cl)cc6)ss5)CC3)S4)ss2)cc1 (stereo not given)
inactive: dose: 25.0 mg/kg/injection, schedule: Q01DX009 (ip), vehicle: water 110 % of control | [1] 94 % of control | dose: 50.0 mg/kg/injection, schedule: Q01DX009 (ip), vehicle: water 121 % of control | dose: 50.0 mg/kg/injection, schedule: Q04DX003 (ip), vehicle: water 101 % of control | dose: 100.0 mg/kg/injection, schedule: Q04DX003 (ip), vehicle: water 92 % of control | dose: 200.0 mg/kg/injection, schedule: Q01DX009 (ip), vehicle: water 121 % of control | dose: 200.0 mg/kg/injection, schedule: Q04DX003 (ip), vehicle: water 97 % of control | dose: 400.0 mg/kg/injection, schedule: Q01DX009 (ip), vehicle: water 121 % of control | dose: 400.0 mg/kg/injection, schedule: Q04DX003 (ip), vehicle: water 98 % of control

C=CC[n+]1cccc2ccccc21
inactive: [2] 100 % of control | [3] 86 % of control | [4] 95 % of control | [5] 90 % of control | [6] 109 % of control

c1ccc(C[n+]2cccc3ccccc32)cc1
inactive: dose: 6.25 mg/kg/injection, schedule: Q01DX009 (ip), vehicle: Klucel (hydroxypropylcellulose) (HPC) 109 % of control | [2] 100 % of control | [3] 90 % of control | [4] 100 % of control | [5] 90 % of control | [6] 104 % of control

Cc1ccc(S(=O)(=O)N(c2ccccc2)c2ccccc2)cc1
inactive: dose: 87.5 mg/kg/injection, schedule: Q01DX009 (ip), vehicle: saline with Tween-80 96 % of control | dose: 175.0 mg/kg/injection, schedule: Q01DX009 (ip), vehicle: saline with Tween-80 96 % of control | dose: 350.0 mg/kg/injection, schedule: Q01DX009 (ip), vehicle: saline with Tween-80 101 % of control

CC(=O)OCC(C)OC(C)=O (stereo not given)
inactive: [7] 91 % of control | dose: 100.0 mg/kg/injection, schedule: Q04DX003 (ip), vehicle: saline 100 % of control | [8] 112 % of control | [9] 100 % of control | dose: 400.0 mg/kg/injection, schedule: Q04DX003 (ip), vehicle: saline 96 % of control

O=C(Nc1ccc(F)cc1)c1ccc(C(=O)Nc2ccc(F)cc2)cc1
inactive: dose: 100.0 mg/kg/injection, schedule: Q04DX003 (ip), vehicle: saline with Tween-80 108 % of control | dose: 200.0 mg/kg/injection, schedule: Q04DX003 (ip), vehicle: saline with Tween-80 91 % of control | dose: 400.0 mg/kg/injection, schedule: Q04DX003 (ip), vehicle: saline with Tween-80 91 % of control

CC1(C)N=C(N)N=C(N)N1c1ccc(CCCCc2ccc(Cl)cc2Cl)cc1
inactive: dose: 4.0 mg/kg/injection, schedule: Q01DX009 (ip), vehicle: saline 118 % of control | dose: 25.0 mg/kg/injection, schedule: Q01DX002 (ip), vehicle: saline 91 % of control | dose: 50.0 mg/kg/injection, schedule: Q01DX002 (ip), vehicle: saline 103 % of control

CC(=O)OCC1OC(OC2=C(CC=C(Cl)Cl)C(=O)c3ccccc3C2=O)C(OC(C)=O)C(OC(C)=O)C1OC(C)=O (stereo not given)
inactive: dose: 25.0 mg/kg/injection, schedule: Q01DX009 (ip), vehicle: saline with Tween-80 100 % of control | dose: 50.0 mg/kg/injection, schedule: Q01DX009 (ip), vehicle: saline with Tween-80 100 % of control and 104 % of control | [10] 100 % of control and 102 % of control | [11] 117 % of control

COc1c2c(cc3oc4ccccc4c(=O)c13)CCCC2
inactive: dose: 50.0 mg/kg/injection, schedule: Q01DX005 (ip), vehicle: saline with Tween-80 100 % of control | dose: 100.0 mg/kg/injection, schedule: Q01DX005 (ip), vehicle: saline with Tween-80 96 % of control | dose: 200.0 mg/kg/injection, schedule: Q01DX005 (ip), vehicle: saline with Tween-80 87 % of control

O=C1OCC2SC(c3ccccc3)NC12 (stereo not given)
inactive: dose: 100.0 mg/kg/injection, schedule: Q01DX001 (ip), vehicle: saline sonified 95 % of control | dose: 200.0 mg/kg/injection, schedule: Q01DX001 (ip), vehicle: saline sonified 113 % of control | dose: 400.0 mg/kg/injection, schedule: Q01DX001 (ip), vehicle: saline sonified 95 % of control

O=c1c(O)c(-c2ccccc2)oc2ccccc12
inactive: dose: 100.0 mg/kg/injection, schedule: Q01DX009 (ip), vehicle: Klucel (hydroxypropylcellulose) (HPC) 95 % of control | dose: 100.0 mg/kg/injection, schedule: Q04DX003 (ip), vehicle: Klucel (hydroxypropylcellulose) (HPC) 91 % of control and 103 % of control | dose: 200.0 mg/kg/injection, schedule: Q01DX009 (ip), vehicle: Klucel (hydroxypropylcellulose) (HPC) 100 % of control | dose: 200.0 mg/kg/injection, schedule: Q04DX003 (ip), vehicle: Klucel (hydroxypropylcellulose) (HPC) 91 % of control and 92 % of control | dose: 400.0 mg/kg/injection, schedule: Q01DX009 (ip), vehicle: Klucel (hydroxypropylcellulose) (HPC) 108 % of control | dose: 400.0 mg/kg/injection, schedule: Q04DX003 (ip), vehicle: Klucel (hydroxypropylcellulose) (HPC) 95 % of control and 96 % of control

CC[N+](CC)(CC)CCCCC[N+](CC)(CC)CC
inactive: dose: 6.25 mg/kg/injection, schedule: Q04DX003 (ip), vehicle: water 104 % of control | dose: 12.5 mg/kg/injection, schedule: Q04DX003 (ip), vehicle: water 114 % of control | [1] 100 % of control and 114 % of control

O=C(O)/C=C/c1ccccc1C(=O)O
inactive: dose: 100.0 mg/kg/injection, schedule: Q01DX001 (ip), vehicle: saline 100 % of control | dose: 200.0 mg/kg/injection, schedule: Q01DX001 (ip), vehicle: saline 100 % of control | dose: 400.0 mg/kg/injection, schedule: Q01DX001 (ip), vehicle: saline 109 % of control

O=C(/C=C/c1cccc(Br)c1)c1ccc(Cl)cc1
inactive: dose: 50.0 mg/kg/injection, schedule: Q01DX009 (ip), vehicle: other 120 % of control | dose: 50.0 mg/kg/injection, schedule: Q04DX003 (ip), vehicle: other 100 % of control | dose: 100.0 mg/kg/injection, schedule: Q01DX009 (ip), vehicle: other 120 % of control | dose: 100.0 mg/kg/injection, schedule: Q04DX003 (ip), vehicle: other 100 % of control | dose: 132.0 mg/kg/injection, schedule: Q01DX009 (ip), vehicle: other 100 % of control | dose: 200.0 mg/kg/injection, schedule: Q01DX009 (ip), vehicle: other 104 % of control | dose: 200.0 mg/kg/injection, schedule: Q04DX003 (ip), vehicle: other 90 % of control | dose: 300.0 mg/kg/injection, schedule: Q01DX009 (ip), vehicle: other 104 % of control

Nc1cc(=O)[nH][nH]1
inactive: [10] 104 % of control | [11] 109 % of control | dose: 400.0 mg/kg/injection, schedule: Q01DX009 (ip), vehicle: saline with Tween-80 122 % of control

Cc1nc(N)sc1CCCl
inactive: dose: 10.0 mg/kg/injection, schedule: Q01DX009 (ip), vehicle: saline 104 % of control | dose: 20.0 mg/kg/injection, schedule: Q01DX009 (ip), vehicle: saline 104 % of control | dose: 40.0 mg/kg/injection, schedule: Q01DX009 (ip), vehicle: saline 100 % of control | dose: 80.0 mg/kg/injection, schedule: Q01DX009 (ip), vehicle: saline 113 % of control

C/C=C1\C(=O)O[C@@]23C=C[C@H]4C(C(=O)OC)=CO[C@@H](O[C@H]12)[C@H]43
inactive: dose: 0.75 mg/kg/injection, schedule: Q01DX009 (ip), vehicle: saline 100 % of control | dose: 2.5 mg/kg/injection, schedule: Q01DX009 (ip), vehicle: saline 115 % of control | dose: 165.0 micrograms/kg/injection, schedule: Q01DX009 (ip), vehicle: Klucel (hydroxypropylcellulose) (HPC) 105 % of control | dose: 620.0 micrograms/kg/injection, schedule: Q01DX009 (ip), vehicle: Klucel (hydroxypropylcellulose) (HPC) 115 % of control | dose: 1250.0 micrograms/kg/injection, schedule: Q01DX009 (ip), vehicle: Klucel (hydroxypropylcellulose) (HPC) 105 % of control

CC(C)(C)N=Cc1ccccc1O.CC(C)(C)N=Cc1ccccc1O.[Cu]
inactive: [2] 100 % of control | [4] 90 % of control | [6] 95 % of control

C#CCOCC1CN(C)C(=O)O1 (stereo not given)
inactive: dose: 25.0 mg/kg/injection, schedule: Q01DX009 (ip), vehicle: saline 104 % of control | dose: 50.0 mg/kg/injection, schedule: Q01DX009 (ip), vehicle: saline 100 % of control | dose: 50.0 mg/kg/injection, schedule: Q04DX003 (ip), vehicle: saline 91 % of control | [7] 100 % of control | [8] 100 % of control | [9] 100 % of control
